Literature values as cited in patent EP4197526A1, “HYDROGEL FORMULATION COMPRISING ZEBULARINE AND RETIONIC ACID” (Uniwersytet Gdanski, priority 2021, dated 2023).
Values joined by “and” are separate entries in the source; they are usually repeats but may differ in a detail not shown here. Equal values may be shown once.

Conditions: literature data

solubility in water	SMILES
0.000063 mg/ml and 0.21 microM	CC1=C(/C=C/C(C)=C/C=C/C(C)=C/C(=O)O)C(C)(C)CCC1 [retinoic acid]
up to 50 mg/ml	O=c1ncccn1[C@@H]1O[C@H](CO)[C@@H](O)[C@H]1O [zebularine]
